From the supplement of paper PMC10307832

Columns and labels:
Assay in all cases: relative viability (nuclei count vs DMSO), 5 days (fraction); higher = more cells survive
Vorinostat + OSI-027 = compound: O=C(CCCCCCC(=O)Nc1ccccc1)NO [Vorinostat] + COc1cccc2cc(-c3nc([C@H]4CC[C@H](C(=O)O)CC4)n4ncnc(N)c34)[nH]c12 [OSI-027] (partner 0.5 µM)
In short: (§1)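 Each reported value is a median over duplicate plates. It expresses relative viability: treated-well nuclei count divided by vehicle-well nuclei count. Lung cancer cell lines in 1536-well plates were dosed by pin tool a day after seeding, alone with one drug or with a fixed anchor-drug dose plus five library-drug doses (not always all listed) in √10 steps, and nuclei were counted after 5 days.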

Vorinostat + Crizotinib = compound: O=C(CCCCCCC(=O)Nc1ccccc1)NO [Vorinostat] + C[C@@H](Oc1cc(-c2cnn(C3CCNCC3)c2)cnc1N)c1c(Cl)ccc(F)c1Cl [Crizotinib] (partner 1 µM)
In short: as §1

Vorinostat + Alpelisib = compound: O=C(CCCCCCC(=O)Nc1ccccc1)NO [Vorinostat] + Cc1nc(NC(=O)N2CCC[C@H]2C(N)=O)sc1-c1ccnc(C(C)(C)C(F)(F)F)c1 [Alpelisib] (partner 2 µM)
In short: as §1

Vorinostat + Dasatinib = compound: O=C(CCCCCCC(=O)Nc1ccccc1)NO [Vorinostat] + Cc1nc(Nc2ncc(C(=O)Nc3c(C)cccc3Cl)s2)cc(N2CCN(CCO)CC2)n1 [Dasatinib] (partner 0.075 µM)
In short: as §1

Vorinostat + AZD7762 = compound: O=C(CCCCCCC(=O)Nc1ccccc1)NO [Vorinostat] + NC(=O)Nc1cc(-c2cccc(F)c2)sc1C(=O)N[C@H]1CCCNC1 [AZD7762] (partner 0.2 µM)
In short: as §1

Row | Cell Line | relative viability (Vorinostat + OSI-027; first compound 0.253 µM) | relative viability (Vorinostat + OSI-027; first compound 0.8 µM) | relative viability (Vorinostat + OSI-027; first compound 2.53 µM) | relative viability (Vorinostat + OSI-027; first compound 8 µM) | relative viability (Vorinostat + Crizotinib; first compound 0.253 µM) | relative viability (Vorinostat + Crizotinib; first compound 0.8 µM) | relative viability (Vorinostat + Crizotinib; first compound 2.53 µM) | relative viability (Vorinostat + Crizotinib; first compound 8 µM) | relative viability (Vorinostat + Alpelisib; first compound 0.253 µM) | relative viability (Vorinostat + Alpelisib; first compound 0.8 µM) | relative viability (Vorinostat + Alpelisib; first compound 2.53 µM) | relative viability (Vorinostat + Alpelisib; first compound 8 µM) | relative viability (Vorinostat + Dasatinib; first compound 0.253 µM) | relative viability (Vorinostat + Dasatinib; first compound 0.8 µM) | relative viability (Vorinostat + Dasatinib; first compound 2.53 µM) | relative viability (Vorinostat + Dasatinib; first compound 8 µM) | relative viability (Vorinostat + AZD7762; first compound 0.253 µM) | relative viability (Vorinostat + AZD7762; first compound 0.8 µM) | relative viability (Vorinostat + AZD7762; first compound 2.53 µM) | relative viability (Vorinostat + AZD7762; first compound 8 µM)
1 | H3255 | 0.669 | 0.694 | 0.478 | 0.289 | 1.02 | 0.817 | 0.411 | 0.225 | 0.874 | 0.714 | 0.414 | 0.209 | 0.396 | 0.342 | 0.309 | 0.301 | 0.989 | 0.923 | 0.507 | 0.279
2 | ABC-1 | 0.491 | 0.352 | 0.159 | 0.102 | 1.11 | 0.383 | 0.131 | 0.0777 | 1.02 | 0.636 | 0.354 | 0.161 | 0.531 | 0.41 | 0.221 | 0.131 | 0.875 | 0.587 | 0.309 | 0.125
3 | NCI-H1734 | 0.803 | 0.672 | 0.362 | 0.137 | 0.779 | 0.683 | 0.214 | 0.127 | 0.714 | 0.7 | 0.518 | 0.137 | 0.608 | 0.624 | 0.39 | 0.111 | 0.306 | 0.292 | 0.162 | 0.0959
4 | NCI-H1355 | 0.442 | 0.309 | 0.228 | 0.164 | 1.19 | 0.963 | 0.398 | 0.138 | 1.1 | 0.691 | 0.321 | 0.145 | 0.825 | 0.503 | 0.298 | 0.169 | 0.892 | 0.595 | 0.394 | 0.15
5 | NCI-H358 | 1.14 | 0.793 | 0.189 | 0.0874 | 0.526 | 0.393 | 0.133 | 0.134 | 1.05 | 0.939 | 0.226 | 0.177 | 0.182 | 0.227 | 0.0991 | 0.0768 | 0.466 | 0.312 | 0.14 | 0.159
6 | EPLC-272H | 0.272 | 0.228 | 0.175 | 0.147 | 0.875 | 0.774 | 0.346 | 0.178 | 0.928 | 0.893 | 0.396 | 0.175 | 0.428 | 0.494 | 0.151 | 0.0935 | 0.135 | 0.171 | 0.069 | 0.138
7 | NCI-H1792 | 0.776 | 0.676 | 0.511 | 0.1 | 0.966 | 0.983 | 0.826 | 0.0888 | 0.742 | 0.55 | 0.207 | 0.0419 | 0.866 | 0.921 | 0.402 | 0.126 | 0.568 | 0.29 | 0.0683 | 0.0252
8 | NCI-H2087 | 0.746 | 0.417 | 0.106 | 0.063 | 0.838 | 0.727 | 0.236 | 0.177 | 1.03 | 1.06 | 0.393 | 0.134 | 0.94 | 0.553 | 0.124 | 0.0691 | 1.35 | 1.04 | 0.498 | 0.102
9 | PC-14 | 1.13 | 0.832 | 0.0624 | 0.0451 | 0.888 | 0.865 | 0.215 | 0.0683 | 1 | 0.903 | 0.263 | 0.0674 | 0.344 | 0.239 | 0.0451 | 0.026 | 0.33 | 0.288 | 0.106 | 0.0453
10 | LXF-289 | 0.969 | 0.761 | 0.407 | 0.0564 | 0.904 | 0.76 | 0.273 | 0.0737 | 1.1 | 1.04 | 0.351 | 0.0687 | 0.316 | 0.347 | 0.226 | 0.0398 | 1.14 | 1.09 | 0.344 | 0.0727
11 | NCI-H23 | 0.595 | 0.338 | 0.329 | 0.118 | 0.525 | 0.381 | 0.102 | 0.116 | 0.84 | 0.707 | 0.213 | 0.117 | 0.922 | 0.671 | 0.41 | 0.0961 | 0.174 | 0.13 | 0.0979 | 0.0915
12 | NCI-H322M | 0.584 | 0.502 | 0.32 | 0.235 | 0.888 | 0.758 | 0.447 | 0.194 | 0.93 | 0.852 | 0.576 | 0.296 | 0.286 | 0.268 | 0.255 | 0.264 | 0.56 | 0.565 | 0.408 | 0.304
13 | NCI-H1651 | 1 | 0.607 | 0.195 | 0.0644 | 0.846 | 0.786 | 0.232 | 0.097 | 1.04 | 0.713 | 0.119 | 0.0787 | 0.415 | 0.195 | 0.0466 | 0.0608 | 0.308 | 0.45 | 0.22 | 0.0691
14 | NCI-H1755 | 0.734 | 0.681 | 0.384 | 0.185 | 0.942 | 0.883 | 0.233 | 0.154 | 1.03 | 0.92 | 0.326 | 0.137 | 0.447 | 0.469 | 0.254 | 0.139 | 0.478 | 0.402 | 0.276 | 0.163
15 | LCLC-103H | 0.545 | 0.502 | 0.429 | 0.143 | 1.12 | 1.13 | 0.737 | 0.254 | 1.23 | 0.97 | 0.58 | 0.184 | 0.504 | 0.533 | 0.339 | 0.134 | 0.696 | 0.672 | 0.45 | 0.238
16 | LU99A | 0.352 | 0.276 | 0.195 | 0.164 | 0.523 | 0.44 | 0.236 | 0.146 | 0.517 | 0.395 | 0.178 | 0.126 | 0.607 | 0.591 | 0.242 | 0.172 | 0.279 | 0.198 | 0.15 | 0.0946
